Data published in US20260327578A1, “TRANSGLUTAMINASES AND USES THEREOF” (CURIE CO. INC., priority 2023, published 2026).

Legend:
[1] = tested on: E. coli (ATCC 8739) / C. albicans (ATCC 10231); assay: MIC of permeabilizer co-dosants with and without Tgase variant; format: cell-based; details: for Co-Dosant MIC, with Tgase variant: with Tgase variant A3 (SEQ ID NO: 4): 12.5 ppm with polymyxin B, 200 ppm with chlorhexidine and with the mixture
Protocol: E. coli (ATCC 8739) and C. albicans (ATCC 10231) were acquired from the American Type Culture Collection (ATCC) (Manassas, VA) and maintained as −80° C. frozen glycerol stocks.
The following day, the cell density of the saturated cultures was calculated using OD600 and cultures were diluted to 104 to 10^6 CFU/mL in sterile Mueller Hinton broth to generate the inoculum, and 100 μL of the inoculum was combined with 100 μL of serially diluted Tgase variant A3 (SEQ ID NO: 4) at a range of 0.0001-0.05 weight percent. Growth curves were measured by OD600 on a BioTek® Synergy Plate Reader. All test conditions were performed in triplicate. MIC was determined to be […] (0.005% w/v) against E. coli for the enzyme described in SEQ ID NO: 4 using OD600.
For MIC determination of yeast cultures, C. albicans (ATCC 10231) was grown overnight (24 hours) in Sabouraud Dextrose broth at 30° C. The following day, the cell density of the saturated cultures was calculated using OD600 and cultures were diluted to 104 to 10^6 CFU/mL in sterile Sabouraud Dextrose broth media to generate the inoculum, and 100 μL of the inoculum was combined with 100 μL of serially diluted Tgase variant at a range of 0.0001-0.05 weight percent. The cultures were grown overnight at 30° C. and growth curves were measured by OD600 on a BioTek® Synergy Plate Reader. All test conditions were performed in triplicate. MIC was determined to be […] (0.005% w/v) against C. albicans for the enzyme described in SEQ ID NO: 4 using OD600.
Aseptilase activities of Tgase variant A3 (SEQ ID NO: 4) in combination with each of the three permeabilizer co-dosants, polymyxin B, chlorhexidine, and a 10000:4000:1 mixture by weight of sodium hexametaphosphate, phytic acid and chlorhexidine, were tested. […] The experiments were performed as described in Example 5. The co-dosants were added into Tgase variant A3 (SEQ ID NO: 4) solutions at concentrations of 0.125 g/L, 0.05 g/L, and 350 mM, respectively. The results are shown in Table 12 with Tgase concentrations reported within the table at the best MIC.

C. albicans = assay: Preservative efficacy in body lotion against C. albicans; format: cell-based; details: 0.005% in combinations, phenoxyethanol 0.7% alone, 0.3% combined, caprylyl glycol 0.7% alone, 0.35% combined, sodium benzoate 0.5% + EDTA 0.5%, 2% 2:1 propanediol:hexanediol, 0.5% CHA solution
Protocol: (§1) A vessel was filled with deionized water, placed under an overhead stirrer set to moderate mixing, and heated to 75-80° C. Glycerin was added to 2% and mixed until dissolved, followed by xanthan gum to 0.2%. At 75-80° C., cetearyl glucoside and cetearyl alcohol were added to 4% and 3%. Once both had melted fully, milk thistle seed oil was added and the batch was homogenized with a Silverson homogenizer with the standard emulsion screen until the batch had turned milky white. The batch was removed from heat and returned to propellor mixing with decreased speed to allow the emulsion to set up. At 40° C., pH was adjusted to pH 5.5-6.0 using citric acid or sodium hydroxide and split into several portions and allowed to finish cooling. Once cooled to room temperature, one portion of the body lotion was left unpreserved and the remaining portions were preserved with one or more substances selected from aseptilase, phenoxyethanol, caprylyl glycol, sodium benzoate, and EDTA. All samples were inoculated with E. coli (10^6 CFU/mL) and C. albicans (10^5 CFU/mL) and plated after 2 and 7 days.

E. coli = assay: Preservative efficacy in body lotion against E. coli; format: cell-based; details: 0.005% in combinations, phenoxyethanol 0.7% alone, 0.3% combined, caprylyl glycol 0.7% alone, 0.35% combined, sodium benzoate 0.5% + EDTA 0.5%, 2% 2:1 propanediol:hexanediol, 0.5% CHA solution
Protocol: as §1

[2] = Thermal stability at 55 °C, specific activity by colorimetric hydroxamate assay; format: biochemical
Protocol: Tgase activity was measured herein using a colorimetric hydroxamate activity assay (Folk and Cole (1965) J Biol Chemistry 240 (7): 2951-2960). Briefly, the hydroxamate assay uses N-benzyloxycarbonyl-L-glutaminyl-glycine (ZQG) as a low molecular weight amine acceptor substrate and hydroxylamine as an amine donor. In the presence of catalytically active Tgase, the hydroxylamine is incorporated to form Z-glutamylhydroxamate-glycine, which develops a colored complex with iron (III), detectable at 525 nm after incubation at 37° C. for 5-200 minutes. The calibration was performed using L-glutamic acid gamma-monohydroxamate (Millipore® Sigma®) as a standard. One unit of Tgase was defined as the amount of enzyme that catalyzes formation of 1 μmol of the peptide derivative of gamma-glutamylhydroxylamine per minute. Activity of Tgase variants is depicted in Tables 2-4.
A commercially available wild-type Tgase (Ajinimoto®, Activa® TI formulation) formulated at 0.75-1.0% enzyme in maltodextrin was purchased from Amazon.com and dissolved in water at 20% w/v. The concentration of the mature Tgase in the solution was confirmed by high-performance liquid chromatography (HPLC) and the sample was further diluted to 0.1 g/L of enzyme. Following dilution, the enzyme was subjected to the hydroxamate assay as described in Example 4 to determine specific activity. The specific activity of the commercial wild-type Tgase compared to Tgase variant A3 (SEQ ID NO: 4), further comprising an N-terminal methionine, is shown in FIG. 1.
The thermal stability of Tgase variant A3 (SEQ ID NO: 4) compared to the commercial wild-type Tgase was evaluated by incubating the samples at 55° C. and testing the enzyme concentration and activity at various timepoints. Six timepoints were tested: 0, 30, 60, 120, 240, and 480 minutes.
The enzyme concentration was measured by HPLC. The samples were diluted 10-fold in 50 mM phosphate pH 7.4, 100 mM NaCl. The samples were tested by reverse phase using a Zorbax SB300-C8 column with 0.1% trifluoroacetic acid in water (MPA) and 0.08% trifluoroacetic acid in acetonitrile (MPB).
The activity was determined using the colorimetric activity assay described in Example 4A. The specific activity (U/mg) of the samples was calculated using the concentration of each sample as determined per Example 4D (results shown in Table 10).

collagen = assay: Collagen-modifying activity with FITC-gelatin or FITC-cadaverine; format: biochemical; details: 16 hours, pH 7.4
Protocol: Substrate specificity for collagen of Tgase variant A3 (SEQ ID NO: 4) was tested by allowing the variant to react with either fluorescein-labeled gelatin (FITC-Gelatin, to test protein-protein cross-linking) or fluorescein-labeled cadaverine (FITC-cadaverine, to test protein-small molecule cross-linking) with a collagen layer deposited on the bottom of a 96-well microtiter plate. Tgase variant A3 (SEQ ID NO: 4) and wild-type Tgase were diluted to 4-800 ppm in 50 mM phosphate buffer, pH 7.4, supplemented with 100 mM NaCl in 96-well collagen coated microtiter plates. Either FITC-gelatin or FITC-cadaverine was added to 1 g/L (final volume 100 μL) and the plates were sealed and incubated at either 37° C. or 50° C. for 16 hours. The reaction supernatants were carefully removed and then 200 μL 50 mM [COMPOUND LEFT OUT] mM NaCl, pH 7.4 buffer was added gently against the side of each well then carefully removed. This wash step was repeated. The plate-bound material was extracted by vigorously pipetting 100 μL dimethylsulfoxide into each well, then the extract was transferred into a black bottom 96-well plate. The fluorescence of the samples was measured at an excitation wavelength of 487 nm and an emission wavelength of 528 nm. The fluorescence signal is assumed to be proportionate to the concentration of fluorescent product extracted from the surface of the plate. For both FITC-gelatin and FITC-cadaverine, the fluorescence response per concentration enzyme was higher for wells treated with Tgase variant A3 (SEQ ID NO: 4) than for wells treated with wild-type Tgase (Table 11).

Which MIC ([1]; read-out: Co-Dosant MIC, without Tgase variant) does the source give for `[H]/N=C(\N/C(=N/[H])NCCCCCCNC(=N)NC(=N)Nc1ccc(Cl)cc1)Nc1ccc(Cl)cc1` [Chlorhexidine, reference compound] here?
Its MIC is 2 µg/mL.

And the “Co-Dosant MIC, with Tgase variant” value [1]?
Its value is 1 ppm.

What does the source list for `CCCCCCC(O)CO` (stereo not shown) [caprylyl glycol]?
Preservative efficacy against C. albicans, log reduction (C. albicans; day 2, aseptilase 0.01% alone): 1.18 log reduction in CFU/mL; Preservative efficacy against C. albicans, log reduction (C. albicans; day 7, aseptilase 0.01% alone): 2.70 log reduction in CFU/mL; Preservative efficacy against E. coli, log reduction (E. coli; day 2, aseptilase 0.01% alone): 5.00 log reduction in CFU/mL; Preservative efficacy against E. coli, log reduction (E. coli; day 7, aseptilase 0.01% alone): 5.00 log reduction in CFU/mL

With `OCCOc1ccccc1` [phenoxyethanol] as the molecule, how does the “Preservative efficacy against C. albicans, log reduction” value (C. albicans; day 2, aseptilase 0.01% alone) read?
Its value is 0.68 log reduction in CFU/mL.

What about the “Preservative efficacy against C. albicans, log reduction” value (C. albicans; day 7, aseptilase 0.01% alone) of the same molecule?
Its value is 1.73 log reduction in CFU/mL.

What about the “Preservative efficacy against E. coli, log reduction” value (E. coli; day 2, aseptilase 0.01% alone) of the same molecule?
Its value is 2.15 log reduction in CFU/mL.

And the “Preservative efficacy against E. coli, log reduction” value (E. coli; day 7, aseptilase 0.01% alone)?
Its value is 3.00 log reduction in CFU/mL.

With Polymyxin B [reference compound] as the molecule, how does the “Co-Dosant MIC, with Tgase variant” value [1] read?
The value was 0.156 ppm.

And the “Co-Dosant MIC, without Tgase variant” value ([1]; without Tgase variant)?
Its value is 0.625 ppm.

B1: Wild-type Tgase: commercially available wild-type Tgase (Ajinimoto, Activa TI formulation) formulated at 0.75-1.0% enzyme in maltodextrin (protein, UniProt P81453 77-407, looked up)
Protein-glutamine …: DSDDRVTPPAEPLDRMPDPYRPSYGRAETVVNNYIRKWQQVYSHRDGRKQQMTEEQREWLSYGCVGVTWVNSGQYPTNRLAFASFDEDRFKNELKNGRPRSGETRAEFEGRVAKESFDEEKGFQRAREVASVMNRALENAHDESAYLDNLKKELANGNDALRNEDARSPFYSALRNTPSFKERNGGNHDPSRMKAVIYSKHFWSGQDRSSSADKRKYGDPDAFRPAPGTGLVDMSRDRNIPRSPTSPGEGFVNFDYGWFGAQTEADADKTVWTHGNHYHAPNGSLGAMHVYESKFRNWSEGYSDFDRGAYVITFIPKSWNTAPDKVKQGWP
modifications: formulated in maltodextrin
Which Specific activity ([2]; timepoint 0 min) does the source give for B1 here?
The Specific activity was 23.3 U/mg.

And the Specific activity ([2]; timepoint 30 min)?
The Specific activity was 31.0 U/mg.

What about the Specific activity ([2]; timepoint 60 min) of the same molecule?
Its Specific activity is 27.0 U/mg.

And the Specific activity ([2]; timepoint 120 min)?
The Specific activity was 29.3 U/mg.

And the Specific activity ([2]; timepoint 240 min)?
Its Specific activity is 36.8 U/mg.

What about the Specific activity ([2]; timepoint 480 min) of the same molecule?
The Specific activity was 21.2 U/mg.

And the “Fluorescence/[Enzyme]” value (collagen; FITC-Cadaverine, 37 °C)?
Its value is 6.7 RFU/ppm.

What about the “Fluorescence/[Enzyme]” value (collagen; FITC-Cadaverine, 50 °C) of the same molecule?
The value was 4.4 RFU/ppm.

What about the “Fluorescence/[Enzyme]” value (collagen; FITC-Gelatin, 37 °C) of the same molecule?
Its value is 4.6 RFU/ppm.

What about the “Fluorescence/[Enzyme]” value (collagen; FITC-Gelatin, 50 °C) of the same molecule?
The value was 6.8 RFU/ppm.
